Values after ≈ are worked out from the molar mass of the structure shown.
Assays:
[1] = Competitive ripening (relative thermodynamic stability of non-solvated forms); details: for Nature (thermodynamic stability of crystal form): Table 6 summary
[2] = D9 solubility in the liquors at isolation temperature; assay type: physicochemical; details: organic solvent or mixture, thermodynamic from solid
Description: At the end of each experiment, suspensions were equilibrated at the isolation temperature (25 or 5° C.) for at least 18 hours and the solids and liquors separated by centrifugation at the isolation temperature. The Exo/D9/D8 ratio (Exo-D9-THC-naphthoylester impurity/D9-THC-naphthoylester/D8-THC-naphthoylester) was determined in both the isolated solids and the liquors, from which the % Exo-depletion in the isolated solids was calculated. Several solids were also isolated at elevated temperatures to assess the impact of the isolation temperature on Exo-impurity depletion.
In addition, the solubility of D9 in the liquors was determined in most of the explored solvents and used to estimate the yield.

[3] = Experiment No. 10, n-BuOH, 25 °C
[4] = Experiment No. 14, Toluene/EtOH (1:9), 5 °C
[5] = Experiment No. 16, n-BuOH, 5 °C

## CCCCCc1cc(OC(=O)c2ccc3ccccc3c2)c2c(c1)OC(C)(C)[C@@H]1CCC(C)=C[C@@H]21 [A, B, C, E, G]
[1]; Experiment No. 7, Acetone/MeOH (1:3), 25 °C
  Form Isolated 1-3 d: E/G
[1]; Experiment No. 8, Toluene/EtOH (1:9), 25 °C
  Form Isolated 1-3 d: G/E
[1]; [3]
  Form Isolated 1-3 d: B/G
  Form Isolated 4-9 d: B/G
[1]; [4]
  Form Isolated 4-9 d: B/G
  Form Isolated 26-29 d: G/B(tr)
[1]; [5]
  Form Isolated 4-9 d: B/G
  Form Isolated 26-29 d: B/G

## CCCCCc1cc(OC(=O)c2ccc3ccccc3c2)c2c(c1)OC(C)(C)[C@@H]1CCC(C)=C[C@@H]21 [B, G, H]
[1]; Experiment No. 17, Toluene/EtOH (1:9), 5 °C
  Form Isolated 12 d: G/H
[1]; Experiment No. 18, Heptane, 5 °C
  Form Isolated 12 d: H/B(tr)
[1]; Experiment No. 19, n-BuOH, 5 °C
  Form Isolated 12 d: B/H

## CCCCCc1cc(OC(=O)c2ccc3ccccc3c2)c2c(c1)OC(C)(C)[C@@H]1CCC(C)=C[C@@H]21 [E, G]
[1]; Experiment No. 15, Heptane, 5 °C
  Form Isolated 4-9 d: G/B

## CCCCCc1cc(OC(=O)c2ccc3ccccc3c2)c2c(c1)OC(C)(C)[C@@H]1CCC(C)=C[C@@H]21 [Form A, (6aR,10aR)-6a,7,8,10a-tetrahydro-6,6,9-trimethyl-3-pentyl-6H-dibenzo[b,d]pyran-1-yl ester]
[1]
  Nature (thermodynamic stability of crystal form): Metastable

## CCCCCc1cc(OC(=O)c2ccc3ccccc3c2)c2c(c1)OC(C)(C)[C@@H]1CCC(C)=C[C@@H]21 [Form C, (6aR,10aR)-6a,7,8,10a-tetrahydro-6,6,9-trimethyl-3-pentyl-6H-dibenzo[b,d]pyran-1-yl ester]
[2]; crystallisation liquors over suspended solid, 5 °C, batch 5, MeCN/MIBK (8:2), seed D, heat T 50, isolation T 5, SP 6, 20.0 mL/g
  solubility: 21600 µg/mL (≈ 46.1 mM)
[2]; crystallisation liquors over suspended solid, 5 °C, batch 5, MeCN/MeOH (9:1), seed D/G, heat T 50, isolation T 5, SP 6, 30.0 mL/g
  solubility: 8400 µg/mL (≈ 17.9 mM)
[2]; crystallisation liquors over suspended solid, 25 °C, batch 5, MeCN, seed D, heat T 50, isolation T 25, SP 5, 30.0 mL/g
  solubility: 8600 µg/mL (≈ 18.4 mM)
[2]; crystallisation liquors over suspended solid, 25 °C, batch 5, MeCN/MIBK (8:2), seed D, heat T 50, isolation T 25, SP 2, 3.2 mL/g
  solubility: 25500 µg/mL (≈ 54.4 mM)
[2]; crystallisation liquors over suspended solid, 25 °C, batch 5, MeCN/MIBK (8:2), seed D, heat T 50, isolation T 25, SP 5, 20.0 mL/g
  solubility: 22300 µg/mL (≈ 47.6 mM)
[2]; crystallisation liquors over suspended solid, 25 °C, batch 5, MeCN/MeOH (9:1), seed D/G, heat T 50, isolation T 25, SP 5, 30.0 mL/g
  solubility: 8700 µg/mL (≈ 18.6 mM)
[1]
  Nature (thermodynamic stability of crystal form): Metastable

## CCCCCc1cc(OC(=O)c2ccc3ccccc3c2)c2c(c1)OC(C)(C)[C@@H]1CCC(C)=C[C@@H]21 [Form E, (6aR,10aR)-6a,7,8,10a-tetrahydro-6,6,9-trimethyl-3-pentyl-6H-dibenzo[b,d]pyran-1-yl ester]
[2]; crystallisation liquors over suspended solid, 25 °C, batch 5, Nitromethane, seed G, heat T 40, isolation T 25, 32.6 mL/g, SP 3
  solubility: 7000 µg/mL (≈ 14.9 mM)
[1]
  Nature (thermodynamic stability of crystal form): Metastable

## CCCCCc1cc(OC(=O)c2ccc3ccccc3c2)c2c(c1)OC(C)(C)[C@@H]1CCC(C)=C[C@@H]21 [Form G, (6aR,10aR)-6a,7,8,10a-tetrahydro-6,6,9-trimethyl-3-pentyl-6H-dibenzo[b,d]pyran-1-yl ester]
[2]; crystallisation liquors over suspended solid, 25 °C, batch 5, Anisole/MeOH (1:9), seed E/G, heat T 50, isolation T 25, 9.4 mL/g, SP 3
  solubility: 8100 µg/mL (≈ 17.3 mM)
[2]; crystallisation liquors over suspended solid, 25 °C, batch 5, Cyclohexanone/MeOH (1:3), seed G, heat T 40, isolation T 25, 9.4 mL/g, SP 3
  solubility: 34400 µg/mL (≈ 73.4 mM)
[2]; crystallisation liquors over suspended solid, 25 °C, batch 5, EtOAc/EtOH (1:9), seed G/H, heat T 55, isolation T 25, 5.0 mL/g, SP 15, Exp 53
  solubility: 17800 µg/mL (≈ 38 mM)
[2]; crystallisation liquors over suspended solid, 25 °C, batch 5, EtOAc/MeOH (1:2), seed H, heat T 55, isolation T 25, 8.0 mL/g, SP 21, Exp 50
  solubility: 18500 µg/mL (≈ 39.5 mM)
[2]; crystallisation liquors over suspended solid, 25 °C, batch 5, EtOAc/MeOH (1:3), seed G/H, heat T 55, isolation T 25, 10.0 mL/g, SP 15, Exp 55
  solubility: 9700 µg/mL (≈ 20.7 mM)
[2]; crystallisation liquors over suspended solid, 25 °C, batch 5, MEK/MeOH (3:7), seed G/H, heat T 55, isolation T 25, 5.0 mL/g, SP 15, Exp 51
  solubility: 23200 µg/mL (≈ 49.5 mM)
[2]; crystallisation liquors over suspended solid, 25 °C, batch 5, Toluene/MeOH (1:9), seed E/G, heat T 50, isolation T 25, 9.6 mL/g, SP 3
  solubility: 6500 µg/mL (≈ 13.9 mM)
[2]; crystallisation liquors over suspended solid, 25 °C, batch 5, Toluene/MeOH (5:95), seed H, heat T 50, isolation T 25, 10.0 mL/g, SP 20, Exp 44
  solubility: 3400 µg/mL (≈ 7.26 mM)
[2]; crystallisation liquors over suspended solid, 25 °C, batch 5, p-Xylene/MeOH (1:9), seed E/G, heat T 50, isolation T 25, 19.5 mL/g, SP 3
  solubility: 7500 µg/mL (≈ 16 mM)
[2]; liquors of the equilibrated crystallisation suspension, 25 °C, batch 5, Cyclohexanone/MeOH (1:3), seed G, heat T 25, isolation T 25, 30.0 mL/g, SP 7
  solubility: 29300 µg/mL (≈ 62.5 mM)
[1]
  Nature (thermodynamic stability of crystal form): Metastable

## CCCCCc1cc(OC(=O)c2ccc3ccccc3c2)c2c(c1)OC(C)(C)[C@@H]1CCC(C)=C[C@@H]21 [G, H]
[1]; Experiment No. 5, Toluene/EtOH (1:9), 50 °C
  Form Isolated 1-3 d: H/G(tr)
[1]; Experiment No. 6, n-BuOH, 50 °C
  Form Isolated 1-3 d: H/G(tr)
[1]; Experiment No. 11, Toluene/EtOH (1:9), 25 °C
  Form Isolated 1-3 d: G/H
[1]; Experiment No. 12, Heptane, 25 °C
  Form Isolated 1-3 d: H/G
